# Measurements: patent publication US12491271B2, “Positron emission tomography radiotracer for diseases associated with translocator protein overexpression, translocator protein-targeting ligand for fluorescence imaging-guided surgery and photodynamic therapy, and production methods therefor” (Seoul National University R&DB Foundation, priority 2018, dated 2025)
# Legend:
# [1] = molecular target: TSPO (Homo sapiens, UniProt P30536); conditions: compared with earlier tracer [11C]PK11195, background art; cited from earlier work
# [2] = In vitro stability in human serum; format: in vitro ADME; conditions: human serum mixed with 1% ethanol/water, 37° C., for up to 120 minutes
# Procedure: In an experiment on the in vitro stability of the fluorine-18-labeled PET radiotracer ([^18F]BS224) for targeting translocator protein overexpression, 0.4 mL of human serum was mixed with 0.4 mL of 1% ethanol/water containing the fluorine-18-labeled radiotracer ([^18F]BS224), and then the solution was incubated at 37° C. for 0, 10, 30, 60 and 120 minutes and then analyzed by thin film chromatography.
# [3] = Measurement of lipophilicity (n-octanol / sodium phosphate buffer partition); format: physicochemical; conditions: n-octanol / sodium phosphate buffer 0.15 M, pH 7.4; measured five times; read-out: lipophilicity (ratio of counts per minute from n-octanol versus sodium phosphate buffer) (converted)
# Procedure: For the measurement of lipophilicity, [^18F]BS224 dispersed in 5% ethanol/saline was added to and mixed with n-octanol (5 mL) and sodium phosphate buffer (0.15 M, pH 7.4, 5.0 mL), and then lipophilicity was measured five times. Samples of each phase were counted for radioactivity, and the lipophilicity was expressed as the ratio of the counts per minute from n-octanol versus that of the sodium phosphate buffer. The lipophilicity of [^18F]BS224 was 2.78±0.4.
# Chain of TSPO (P30536 whole entry): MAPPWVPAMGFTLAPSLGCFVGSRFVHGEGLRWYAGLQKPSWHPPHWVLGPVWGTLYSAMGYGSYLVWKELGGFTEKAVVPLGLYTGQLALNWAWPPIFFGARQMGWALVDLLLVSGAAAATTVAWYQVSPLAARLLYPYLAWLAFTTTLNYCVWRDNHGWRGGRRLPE
Structure (SMILES),higher uptake [1],stability of radiotracer in human serum (thin film chromatography) [2],logD [3]
COc1ccc(OC)c(CN(C(C)=O)c2cc(F)ccc2Oc2ccccc2)c1 [[^11C]DAA1106],4 fold,–,–
"CCCN(CCC)C(=O)Cc1c(-c2ccc([18F])cc2)nc2c(Cl)cc(Cl)cn12 [[^18F]BS224, 2-(6,8-dichloro-2-(4-[^18F]fluorophenyl)imidazo[1,2-a]pyridin-3-yl)-N, N-dipropylacetamide]",–,at least 98.7%,0.444
